According to patent publication US7973061B2, “Anaplastic lymphoma kinase modulators and methods of use” (Exelixis, Inc., priority 2004, dated 2011):

Biological target: T1, ALK (baculovirus expressed human ALK kinase domain F1098-K1410) (Homo sapiens, UniProt Q9UM73)
T1 construct: human ALK kinase domain F1098-K1410; made in house
Experiment: biochemical
Conditions: 1 μM ATP, 4 μM poly-AEKY, 12 nM ALK, 2 hours at ambient temperature; read-out: ALK IC50
Experimental: Kinase activity and compound inhibition are investigated using one or more of the three assay formats described below. The ATP concentrations for each assay are selected to be close to the Michaelis-Menten constant (KM) for each individual kinase. Dose-response experiments are performed at 10 different inhibitor concentrations in a 384-well plate format. […] Y=Min+(Max−Min)/(1+(X/IC50)^H) Equation (2) Luciferase-Coupled Chemiluminescent Kinase Assay
ALK biochemical activity was assessed using a Luciferase-Coupled Chemiluminescent Kinase assay (LCCA) format in which kinase activity was measured as the percent ATP remaining following the kinase reaction. ATP remaining after the kinase reaction was detected by luciferase-luciferin-coupled chemiluminescence. […] The mixture was incubated at ambient temperature for 2 hours after which 20 μL luciferase-luciferin mix was added and the chemiluminescent signal read using a Wallac Victor^2 reader. […] Consumption of ATP by ALK can be quantified and utilized as a measure of inhibition of ALK activity by compounds described herein. By employing serial dilutions of compounds to be tested, the ability of test compounds to inhibit ALK activity can be determined.

T1 sequence (Q9UM73 1098-1410): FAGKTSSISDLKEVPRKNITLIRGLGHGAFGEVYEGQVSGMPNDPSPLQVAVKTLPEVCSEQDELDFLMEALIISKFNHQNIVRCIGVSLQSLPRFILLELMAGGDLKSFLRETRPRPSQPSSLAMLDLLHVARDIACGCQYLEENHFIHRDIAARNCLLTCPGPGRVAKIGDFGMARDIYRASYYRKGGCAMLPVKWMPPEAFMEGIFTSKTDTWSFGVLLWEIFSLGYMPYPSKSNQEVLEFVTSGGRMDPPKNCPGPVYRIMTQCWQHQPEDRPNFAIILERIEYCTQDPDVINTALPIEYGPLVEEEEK

## O=C(COc1ccc(OC(F)(F)F)cc1)NCc1nc(C(=O)NCc2ccccc2Cl)cs1 [Entry 32, N-[(2-chlorophenyl)methyl]-2-({[({4-[(trifluoromethyl)oxy]phenyl}oxy)acetyl]amino}methyl)-1,3-thiazole-4-carboxamide]
  IC50: 50 to 500 nM

## Cc1ccc(C)c(CCNC(=O)c2csc(CNC(=O)COc3ccc(OC(F)(F)F)cc3)n2)c1 [Entry 33, N-[2-(2,5-dimethylphenyl)ethyl]-2-({[({4-[(trifluoromethyl)oxy]phenyl}oxy)acetyl]amino}methyl)-1,3-thiazole-4-carboxamide]
  IC50: 50 to 500 nM

## O=C(COc1ccc(OC(F)(F)F)cc1)NCc1nc(C(=O)NCc2ccccc2OC(F)F)cs1 [Entry 34, N-({2-[(difluoromethyl)oxy]phenyl}methyl)-2-({[({4-[(trifluoromethyl)oxy]phenyl}oxy)acetyl]amino}methyl)-1,3-thiazole-4-carboxamide]
  IC50: 50 to 500 nM

## O=C(COc1ccc(OC(F)(F)F)cc1)NCc1nc(C(=O)NCCC2=CCCCC2)cs1 [Entry 35, N-(2-cyclohex-1-en-1-ylethyl)-2-({[({4-[(trifluoromethyl)oxy]phenyl}oxy)acetyl]amino}methyl)-1,3-thiazole-4-carboxamide]
  IC50: 50 to 500 nM

## Cc1ccc(CCNC(=O)c2csc(CNC(=O)COc3ccc(OC(F)(F)F)cc3)n2)cc1 [Entry 36, N-[2-(4-methylphenyl)ethyl]-2-({[({4-[(trifluoromethyl)oxy]phenyl}oxy)acetyl]amino}methyl)-1,3-thiazole-4-carboxamide]
  IC50: 50 to 500 nM

## CCCCOCCCNC(=O)c1csc(CNC(=O)COc2ccc(OC(F)(F)F)cc2)n1 [Entry 37, N-[3-(butyloxy)propyl]-2-({[({4-[(trifluoromethyl)oxy]phenyl}oxy)acetyl]amino}methyl)-1,3-thiazole-4-carboxamide]
  IC50: 50 to 500 nM

## O=C(COc1ccc(OC(F)(F)F)cc1)NCc1nc(C(=O)NCC2c3ccccc3CCc3ccccc32)co1 [Entry 38, N-(10,11-dihydro-5H-dibenzo[a,d]cyclohepten-5-ylmethyl)-2-({[({4-[(trifluoromethyl)oxy]phenyl}oxy)acetyl]amino}methyl)-1,3-oxazole-4-carboxamide]
  IC50: 50 to 500 nM

## Cc1ccc(Cl)cc1CNC(=O)c1csc(CNC(=O)COc2ccc(OC(F)(F)F)cc2)n1 [Entry 39, N-[(5-chloro-2-methylphenyl)methyl]-2-({[({4-[(trifluoromethyl)oxy]phenyl}oxy)acetyl]amino}methyl)-1,3-thiazole-4-carboxamide]
  IC50: 50 to 500 nM

## COc1cccc(CCNC(=O)c2csc(CNC(=O)COc3ccc(OC(F)(F)F)cc3)n2)c1 [Entry 40, N-{2-[3-(methyloxy)phenyl]ethyl}-2-({[({4-[(trifluoromethyl)oxy]phenyl}oxy)acetyl]amino}methyl)-1,3-thiazole-4-carboxamide]
  IC50: 50 to 500 nM

## CSc1ccccc1CNC(=O)c1csc(CNC(=O)COc2ccc(OC(F)(F)F)cc2)n1 [Entry 41, N-{[2-(methylthio)phenyl]methyl}-2-({[({4-[(trifluoromethyl)oxy]phenyl}oxy)acetyl]amino}methyl)-1,3-thiazole-4-carboxamide]
  IC50: 50 to 500 nM

## COc1ccc(CCNC(=O)c2csc(CNC(=O)COc3ccc(OC(F)(F)F)cc3)n2)cc1OC [Entry 42, N-{2-[3,4-bis(methyloxy)phenyl]ethyl}-2-({[({4-[(trifluoromethyl)oxy]phenyl}oxy)acetyl]amino}methyl)-1,3-thiazole-4-carboxamide]
  IC50: 50 to 500 nM

## CCOc1ccc(CCNC(=O)c2csc(CNC(=O)COc3ccc(OC(F)(F)F)cc3)n2)cc1OC [Entry 43, N-{2-[4-(ethyloxy)-3-(methyloxy)phenyl]ethyl}-2-({[({4-[(trifluoromethyl)oxy]phenyl}oxy)acetyl]amino}methyl)-1,3-thiazole-4-carboxamide]
  IC50: 50 to 500 nM

## O=C(COc1ccc(OC(F)(F)F)cc1)NCc1nc(C(=O)NCCc2ccc(Cl)c(Cl)c2)cs1 [Entry 44, N-[2-(3,4-dichlorophenyl)ethyl]-2-({[({4-[(trifluoromethyl)oxy]phenyl}oxy)acetyl]amino}methyl)-1,3-thiazole-4-carboxamide]
  IC50: 50 to 500 nM

## O=C(COc1ccc(OC(F)(F)F)cc1)NCc1nc(C(=O)NCCc2c[nH]c3ccccc23)cs1 [Entry 45, N-[2-(1H-indol-3-yl)ethyl]-2-({[({4-[(trifluoromethyl)oxy]phenyl}oxy)acetyl]amino}methyl)-1,3-thiazole-4-carboxamide]
  IC50: 50 to 500 nM

## Cc1cccc(CNC(=O)c2csc(CNC(=O)COc3ccc(OC(F)(F)F)cc3)n2)c1C [Entry 46, N-[(2,3-dimethylphenyl)methyl]-2-({[({4-[(trifluoromethyl)oxy]phenyl}oxy)acetyl]amino}methyl)-1,3-thiazole-4-carboxamide]
  IC50: 50 to 500 nM

## Cc1ccc(F)cc1CNC(=O)c1csc(CNC(=O)COc2ccc(OC(F)(F)F)cc2)n1 [Entry 47, N-[(5-fluoro-2-methylphenyl)methyl]-2-({[({4-[(trifluoromethyl)oxy]phenyl}oxy)acetyl]amino}methyl)-1,3-thiazole-4-carboxamide]
  IC50: 50 to 500 nM

## O=C(COc1ccc(OC(F)(F)F)cc1)NCc1nc(C(=O)NCCc2ccncc2)cs1 [Entry 48, N-(2-pyridin-4-ylethyl)-2-({[({4-[(trifluoromethyl)oxy]phenyl}oxy)acetyl]amino}methyl)-1,3-thiazole-4-carboxamide]
  IC50: 50 to 500 nM

## Cc1ccc(CCNC(=O)c2csc(CNC(=O)COc3ccc(OC(F)(F)F)cc3)n2)c(C)c1 [Entry 49, N-[2-(2,4-dimethylphenyl)ethyl]-2-({[({4-[(trifluoromethyl)oxy]phenyl}oxy)acetyl]amino}methyl)-1,3-thiazole-4-carboxamide]
  IC50: 50 to 500 nM

## CC(C)c1ccc(CC(=O)NCc2nc(C(=O)NCCc3cccc(Cl)c3)cs2)cc1 [Entry 50, N-[2-(3-chlorophenyl)ethyl]-2-[({[4-(1-methylethyl)phenyl]acetyl}amino)methyl]-1,3-thiazole-4-carboxamide]
  IC50: 50 to 500 nM

## O=C(COc1ccc(OC(F)(F)F)cc1)NCc1nc(C(=O)NCCc2cccnc2)cs1 [Entry 51, N-(2-pyridin-3-ylethyl)-2-({[({4-[(trifluoromethyl)oxy]phenyl}oxy)acetyl]amino}methyl)-1,3-thiazole-4-carboxamide]
  IC50: 50 to 500 nM

## O=C(COc1ccc(OC(F)(F)F)cc1)NCc1nc(C(=O)NCCc2cccc(C(F)(F)F)c2)cs1 [Entry 52, 2-({[({4-[(trifluoromethyl)oxy]phenyl}oxy)acetyl]amino}methyl)-N-{2-[3-(trifluoromethyl)phenyl]ethyl}-1,3-thiazole-4-carboxamide]
  IC50: 50 to 500 nM

## COc1cccc(CCNC(=O)c2csc(CNC(=O)COc3ccc(OC(F)(F)F)cc3)n2)c1OC [Entry 53, N-{2-[2,3-bis(methyloxy)phenyl]ethyl}-2-({[({4-[(trifluoromethyl)oxy]phenyl}oxy)acetyl]amino}methyl)-1,3-thiazole-4-carboxamide]
  IC50: 50 to 500 nM

## NC(=O)C(NC(=O)c1csc(CNC(=O)COc2ccc(OC(F)(F)F)cc2)n1)c1ccccc1 (stereo not drawn) [Entry 54, N-(2-amino-2-oxo-1-phenylethyl)-2-({[({4-[(trifluoromethyl)oxy]phenyl}oxy)acetyl]amino}methyl)-1,3-thiazole-4-carboxamide]
  IC50: 50 to 500 nM

## CC(C)c1ccc(OCC(=O)NCc2nc(C(=O)NCCc3ccccc3F)cs2)cc1 [Entry 55, N-[2-(2-fluorophenyl)ethyl]-2-{[({[4-(1-methylethyl)phenyl]oxy}acetyl)amino]methyl}-1,3-thiazole-4-carboxamide]
  IC50: 50 to 500 nM

## Cc1ccc(CCNC(=O)c2csc(CNC(=O)COc3ccc(OC(F)(F)F)cc3)n2)cc1C [Entry 56, N-[2-(3,4-dimethylphenyl)ethyl]-2-({[({4-[(trifluoromethyl)oxy]phenyl}oxy)acetyl]amino}methyl)-1,3-thiazole-4-carboxamide]
  IC50: 50 to 500 nM

## O=C(COc1ccc(OC(F)(F)F)cc1)NCc1nc(C(=O)NCc2ccccc2OC(F)(F)F)cs1 [Entry 57, N-({2-[(trifluoromethyl)oxy]phenyl}methyl)-2-({[({4-[(trifluoromethyl)oxy]phenyl}oxy)acetyl]amino}methyl)-1,3-thiazole-4-carboxamide]
  IC50: 50 to 500 nM

## CCOc1ccccc1CNC(=O)c1csc(CNC(=O)COc2ccc(OC(F)(F)F)cc2)n1 [Entry 58, N-{[2-(ethyloxy)phenyl]methyl}-2-({[({4-[(trifluoromethyl)oxy]phenyl}oxy)acetyl]amino}methyl)-1,3-thiazole-4-carboxamide]
  IC50: 50 to 500 nM

## O=C(COc1ccc(I)cc1)NCc1nc(C(=O)NCCc2ccccc2F)cs1 [Entry 59, N-[2-(2-fluorophenyl)ethyl]-2-[({[(4-iodophenyl)oxy]acetyl}amino)methyl]-1,3-thiazole-4-carboxamide]
  IC50: 50 to 500 nM

## CCOc1ccccc1CCNC(=O)c1csc(CNC(=O)COc2ccc(OC(F)(F)F)cc2)n1 [Entry 60, N-{2-[2-(ethyloxy)phenyl]ethyl}-2-({[({4-[(trifluoromethyl)oxy]phenyl}oxy)acetyl]amino}methyl)-1,3-thiazole-4-carboxamide]
  IC50: 50 to 500 nM

## O=C(COc1ccc(OC(F)(F)F)cc1)NCc1nc(C(=O)NCc2cc(F)ccc2F)cs1 [Entry 61, N-[(2,5-difluorophenyl)methyl]-2-({[({4-[(trifluoromethyl)oxy]phenyl}oxy)acetyl]amino}methyl)-1,3-thiazole-4-carboxamide]
  IC50: 50 to 500 nM
